SMILES strings stand for the structures. pEC50: −log10 of the molar value. Bounds are passed on as bounds.

One assay concerns the target T1, LXRβ (Homo sapiens, UniProt P55055).
T1 construct: LXRβ (amino acids 156-461); expressed in transfected cells; host or cells: HEK293
T1 sequence (P55055 156-460): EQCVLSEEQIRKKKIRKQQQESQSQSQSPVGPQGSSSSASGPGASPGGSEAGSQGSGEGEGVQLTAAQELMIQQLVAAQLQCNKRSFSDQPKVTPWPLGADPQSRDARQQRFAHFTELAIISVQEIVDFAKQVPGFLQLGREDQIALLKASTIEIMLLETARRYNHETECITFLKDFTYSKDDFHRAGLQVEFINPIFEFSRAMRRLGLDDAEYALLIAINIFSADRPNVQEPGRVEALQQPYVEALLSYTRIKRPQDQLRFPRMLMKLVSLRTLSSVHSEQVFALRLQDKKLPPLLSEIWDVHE
Nature of the assay: LXR Gal4 reporter transient transfection assay (mammalian two-hybrid, HEK293), LXRβ. The note with it: ligand-binding domain (LBD) of LXRβ, HEK293; read-out: LBD-M2H Gal4β. It is filed as cell-based. As to the method: LXRα and LXRβ activity status was determined via detection of interaction with coactivator and corepressor proteins in mammalian two-hybrid experiments (M2H). For this, via transient transfection the full length (FL) proteins of LXRα (amino acids 1-447; NP005684; SEQ ID NO:1) or LXRβ-(amino acids 1-461; NP009052; SEQ ID NO:2) or the ligand-binding domains (LBD) of LXRα (amino acids 155-447 SEQ ID NO:3) or LXRβ (amino acids 156-461; SEQ ID NO:4) were expressed from pCMV-AD (Stratagene) as fusions to the transcriptional activation domain of NFkB. As cofactors, domains of either the steroid receptor coactivator 1 (SRC1; amino acids 552-887; SEQ ID NO:5) or of the corepressor NCoR (amino acids 1906-2312; NP006302; SEQ ID NO:6) were expressed as fusions to the DNA binding domain of the yeast transcription factor GAL4 (from pCMV-BD; Stratagene). Interaction was monitored via activation of a coexpressed Firefly Luciferase Reporter gene under control of a promoter containing repetitive GAL4 response elements (vector pFRLuc; Stratagene). Transfection efficiency was controlled via cotransfection of constitutively active pRL-CMV Renilla reniformis luciferase reporter (Promega). HEK293 cells were grown in minimum essential medium (MEM) with 2 mM L-glutamine and Earle's balanced salt solution supplemented with 8.3% fetal bovine serum, 0.1 mM non-essential amino acids, 1 mM sodium pyruvate, at 37° C. in 5% CO2. 3.5×10^4 cells/well were plated in 96-well cell culture plates in growth medium supplemented with 8.3% fetal bovine serum for 16-20 h to ˜90% confluency. For transfection, medium was taken off and LXR and cofactor expressing plasmids as well as the reporter plasmids are added in 30 μL OPTIMEM/well including polyethylene-imine (PEI) as vehicle. Typical amounts of plasmids transfected/well: pCMV-AD-LXR (5 ng), pCMV-BD-cofactor (5 ng), pFR-Luc (100 ng), pRL-CMV (0.5 ng). Compound stocks were prepared in DMSO, prediluted in MEM to a total volume of 120 μL, and added 4 h after addition of the transfection mixture (final vehicle concentration not exceeding 0.2%). Cells were incubated for additional 16 h, lysed for 10 min in 1×Passive Lysis Buffer (Promega) and Firefly and Renilla luciferase activities were measured sequentially in the same cell extract using buffers containing D-luciferine and coelenterazine, respectively. Measurements of luminescence were done in a BMG-luminometer.
The potencies of Compound 21/3 and its analog, Compound pre-6/3, against LXRα and LXRβ were evaluated in biochemical binding assays, cellular mammalian two-hybrid (M2H) interaction assays evaluating nuclear receptor co-repressor (NCOR) recruitment, and cellular reporter assays evaluating transcriptional activity (Table 5).

Assay [1] deals with T2, GST-LXRβ ligand-binding domain (Homo sapiens, UniProt P55055).
T2 construct: amino acids 156-461; NP009052; made in house; host or cells: E. coli
T2 sequence (P55055 156-460 limits assumed): T1 sequence (P55055 156-460)
Nature of the assay: TR-FRETβ activity assay (NCoA3 coactivator peptide recruitment). In kind it is biochemical. The note with it: 1 μM 24(S)-25-epoxycholesterol prestimulation. Put shortly: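 Inverse-agonist format, with LXR prestimulated by 1 μM 24(S)-25-epoxycholesterol in pH 6.8 Tris/HCl, 240 mM KCl, BSA and Triton. Ten concentrations from 50 μM to 0.002 μM were equilibrated 1 h at 4° C with 76 nM GST-LXRβ LBD and 400 nM biotin-NCoA3 peptide. Peptide recruitment detected by 665/615 nm TR-FRET.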

For `COc1ccc(S(=O)(=O)n2c(-c3ccccc3)c(-c3cc4ccccc4nc3C#N)c3ccccc32)cc1` [20/17], at LXRβ, the pEC50 is 6.00 to 7.00. On to `NC(=O)c1sccc1-c1c(-c2cccs2)n(S(=O)(=O)c2ccc(Cl)cc2)c2ccccc12` [Compound 22], for which the pEC50 on LXRβ is 6.00 to 7.00; in assay [1], 5.00 to 6.00. On to `N#Cc1sccc1-c1c(-c2cccc(C3CC3C(=O)O)c2)n(S(=O)(=O)C2CC2)c2ccccc12` (centres unmarked) [30/12], for which the pEC50 on LXRβ was 6.00 to 7.00; in assay [1], 5.00 to 6.00. As for `N#Cc1sccc1-c1c(-c2cccs2)n(S(=O)(=O)c2ccc(F)cc2)c2ccccc12` [20/11], the pEC50 is more than 7.00 on LXRβ and 6.00 to 7.00 in assay [1]. With `Cc1ccc(S(=O)(=O)n2c(-c3cccc(-c4cccc(C(C)(C)C(=O)O)c4)c3)c(-c3ccsc3C#N)c3ccccc32)cc1` [30/2], the results for the pEC50 (on LXRβ; in assay [1]) were 6.00 to 7.00 and 5.00 to 6.00, respectively. As for `Cc1ccc(S(=O)(=O)n2c(-c3cccc(C4CC4C(=O)O)c3)c(-c3ccsc3F)c3ccccc32)cc1` (centres unmarked) [30/14], the pEC50 is 6.00 to 7.00 on LXRβ and 5.00 to 6.00 in assay [1].

As to `Cc1ccc(S(=O)(=O)n2c(-c3cccc(C(C)(C)C(=O)O)c3)c(-c3ccsc3C#N)c3ccccc32)cc1` [3/20], the figures for the pEC50 (at LXRβ; in assay [1]) were more than 7.00 and 5.00 to 6.00, respectively. Regarding `N#Cc1sccc1-c1c(-c2cccs2)n(S(=O)(=O)c2ccc(Cl)cc2)c2ccc(OCCCC(=O)O)cc12` [15/1], the pEC50 on LXRβ is 6.00 to 7.00; in assay [1], 5.00 to 6.00. With `COc1ccc(S(=O)(=O)n2c(-c3ccccc3)c(-c3c(C#N)sc4ccccc34)c3ccccc32)cc1` [20/18], the pEC50 on LXRβ was more than 7.00.

For the compound `CS(=O)(=O)c1ccccc1-c1c(-c2cccs2)n(S(=O)(=O)c2ccc(Cl)cc2)c2ccccc12` [20/5], the pEC50 is 6.00 to 7.00 on LXRβ and 5.00 to 6.00 in assay [1]. As for `N#Cc1sccc1-c1c(-c2cccc(CCCC(=O)O)c2)n(S(=O)(=O)c2ccc(Cl)cc2)c2ccccc12` [30/5], the pEC50 on LXRβ was more than 7.00; in assay [1], 5.00 to 6.00.

`O=C(O)c1sccc1-c1c(-c2cccs2)n(S(=O)(=O)c2ccc(Cl)cc2)c2ccccc12` [Compound 21]: the pEC50 is 5.00 to 6.00 at LXRβ and less than 5.00 in assay [1].

As to `N#Cc1c(OCC(=O)O)cccc1-c1c(-c2cccs2)n(S(=O)(=O)c2ccc(Cl)cc2)c2ccccc12` [21/2], the pEC50 (at LXRβ; in assay [1]) was 5.00 to 6.00 throughout.

Take `N#Cc1sccc1-c1c(-c2cccs2)n(S(=O)(=O)c2ccc(Cl)cc2)c2ccccc12` [20/13]: the pEC50 was more than 7.00 on LXRβ and 6.00 to 7.00 in assay [1].

Turning to `N#Cc1ccncc1-c1c(-c2cccs2)n(S(=O)(=O)c2ccc(Cl)cc2)c2ccccc12` [20/2], the pEC50 at LXRβ is more than 7.00; in assay [1], 5.00 to 6.00. With `N#Cc1cc(F)ccc1-c1c(-c2cccs2)n(S(=O)(=O)c2ccc(Cl)cc2)c2ccccc12` [20/6], the pEC50 on LXRβ was more than 7.00; in assay [1], 6.00 to 7.00. In the same order, the values of `Cc1ncc(S(=O)(=O)n2c(-c3ccccc3)c(-c3ccsc3C#N)c3ccccc32)s1` [1/42] are more than 7.00 and 5.00 to 6.00. In the case of `Cc1cc(C)c(S(=O)(=O)n2c(-c3cccs3)c(-c3ccsc3C#N)c3ccccc32)c(C)c1` [1/26], the pEC50 at LXRβ was more than 7.00; in assay [1], 5.00 to 6.00. For `N#Cc1sccc1-c1c(-c2cccs2)n(S(=O)(=O)c2ccc(Cl)cc2)c2cc(O)ccc12` [13/1], the pEC50 was more than 7.00 at LXRβ and 5.00 to 6.00 in assay [1]. For `N#Cc1sccc1-c1c(-c2cccs2)n(S(=O)(=O)c2ccc(Cl)cc2)c2cc(OCCCC(=O)O)ccc12` [15/4], the figures for the pEC50 (at LXRβ; in assay [1]) were more than 7.00 and 5.00 to 6.00, respectively. Turning to `N#Cc1sccc1-c1c(-c2cccs2)n(S(=O)(=O)c2ccc(Cl)cc2)c2ccc(OCCCCC(=O)O)cc12` [15/2], the pEC50 is 6.00 to 7.00 on LXRβ and less than 5.00 in assay [1]. As to `COc1ccc(S(=O)(=O)n2c(-c3ccccc3)c(-c3cc(C)sc3C#N)c3ccccc32)cc1` [20/23], the pEC50 on LXRβ is 6.00 to 7.00; in assay [1], 5.00 to 6.00.

In the case of `N#Cc1sccc1-c1c(-c2ccccc2)n(S(=O)(=O)c2cccnc2)c2ccccc12` [1/41], the figures for the pEC50 (at LXRβ; in assay [1]) were more than 7.00 and 5.00 to 6.00, respectively. As to `CS(=O)(=O)NC(=O)C1CC1c1cccc(-c2c(-c3ccsc3C#N)c3ccccc3n2S(=O)(=O)c2ccc(Cl)cc2)c1` (centres unmarked) [32/1], the pEC50 at LXRβ was more than 7.00; in assay [1], 6.00 to 7.00.

For `Cn1cnc(S(=O)(=O)n2c(-c3cccs3)c(-c3ccsc3C#N)c3ccccc32)c1` [1/28], the pEC50 on LXRβ was more than 7.00; in assay [1], 5.00 to 6.00. On to `COc1ccc(S(=O)(=O)n2c(-c3ccccc3)c(-c3ccsc3OC)c3ccccc32)cc1` [20/22], for which the pEC50 (at LXRβ; in assay [1]) was 6.00 to 7.00 each time. On to `COc1ccc(S(=O)(=O)n2c(-c3ccccc3)c(C3=C(C#N)c4ccccc4CC3)c3ccccc32)cc1` [20/19], for which the pEC50 at LXRβ was 6.00 to 7.00; in assay [1], less than 5.00. Regarding `N#Cc1sccc1-c1c(-c2cccc(N3CC(C(=O)O)C3)c2)n(S(=O)(=O)c2ccccc2)c2ccc(F)cc12` [3/9], the pEC50 at LXRβ was more than 7.00; in assay [1], 5.00 to 6.00. Turning to `N#Cc1sccc1-c1c(-c2cc(Cl)cc(C3CC3C(=O)O)c2)n(S(=O)(=O)c2ccc(Cl)cc2)c2ccccc12` (centres unmarked) [30/9], the pEC50 at LXRβ is more than 7.00; in assay [1] it was 5.00 to 6.00. Regarding `N#Cc1sccc1-c1c(-c2cccc(OCC(=O)O)c2)n(S(=O)(=O)c2ccc(Cl)cc2)c2ccccc12` [3/51], the values for the pEC50 (on LXRβ; in assay [1]) were 6.00 to 7.00 and 5.00 to 6.00, respectively.

As to `N#Cc1sccc1-c1c(-c2ccc(F)cc2)n(S(=O)(=O)c2ccc(Cl)cc2)c2ccccc12` [26/1], the pEC50 is more than 7.00 at LXRβ and 5.00 to 6.00 in assay [1]. Take `N#Cc1sccc1-c1c(-c2cccc(OCCC(=O)O)n2)n(S(=O)(=O)c2ccc(Cl)cc2)c2ccccc12` [Compound 31]: the pEC50 is 6.00 to 7.00 on LXRβ and 5.00 to 6.00 in assay [1]. As for `COc1ccc(S(=O)(=O)n2c(-c3ccccc3)c(-c3ccsc3C)c3ccccc32)cc1` [20/21], the pEC50 was more than 7.00 at LXRβ and 5.00 to 6.00 in assay [1]. `COC(=O)CCc1ccc(S(=O)(=O)n2c(-c3cccs3)c(-c3ccsc3C#N)c3ccccc32)cc1` [20/15]: the pEC50 (at LXRβ; in assay [1]) was 6.00 to 7.00 throughout. Consider `N#Cc1sccc1-c1c(-c2cccs2)n(S(=O)(=O)C2CCCCC2)c2ccccc12` [Compound 24], for which the pEC50 at LXRβ is more than 7.00; in assay [1], 5.00 to 6.00. Consider `N#Cc1nccnc1-c1c(-c2cccs2)n(S(=O)(=O)c2ccc(Cl)cc2)c2ccccc12` [20/7], for which the pEC50 was more than 7.00 at LXRβ and 5.00 to 6.00 in assay [1]. Turning to `N#Cc1sccc1-c1c(-c2cccs2)n(S(=O)(=O)c2ccc(F)cc2F)c2ccccc12` [20/12], the pEC50 on LXRβ is more than 7.00; in assay [1], 5.00 to 6.00. In the case of `Cc1ccc(S(=O)(=O)n2c(-c3cccc(-c4cncc(C(C)(C)C(=O)O)c4)c3)c(-c3ccsc3C#N)c3ccccc32)cc1` [30/3], the pEC50 on LXRβ was 6.00 to 7.00.

`COc1ccc2c(-c3ccsc3C#N)c(-c3cccs3)n(S(=O)(=O)c3ccc(Cl)cc3)c2c1` [1/40]: the pEC50 on LXRβ is more than 7.00; in assay [1], 5.00 to 6.00. In the case of `Cc1ccc(S(=O)(=O)n2c(-c3cc(C4CC4C(=O)O)cs3)c(-c3ccsc3C#N)c3ccccc32)cc1` (centres unmarked) [3/17], the figures for the pEC50 (at LXRβ; in assay [1]) were more than 7.00 and 5.00 to 6.00, respectively.
